Experimental data reported in ChEMBL document CHEMBL1671689, “Activity of ceftaroline against recent emerging serotypes of Streptococcus pneumoniae in the United States” (2010).
In brackets after ≈: the same amount, converted by molar mass.

Experiments:
Format in all cases: functional
Streptococcus pneumoniae [1] = assay: Antimicrobial activity against Streptococcus pneumoniae serotype 19A by broth microdilution method
Streptococcus pneumoniae [2] = assay: Antimicrobial activity against Streptococcus pneumoniae serotype 3 by broth microdilution method
Streptococcus pneumoniae [3] = assay: Antimicrobial activity against Streptococcus pneumoniae serotype 35B by broth microdilution method
Streptococcus pneumoniae [4] = assay: Antimicrobial activity against Streptococcus pneumoniae serotype 7F by broth microdilution method
Streptococcus pneumoniae [5] = assay: Antimicrobial activity against Streptococcus pneumoniae serotype 11A by broth microdilution method
Streptococcus pneumoniae [6] = assay: Antimicrobial activity against Streptococcus pneumoniae serotype 6C by broth microdilution method
Streptococcus pneumoniae [7] = assay: Antimicrobial activity against multiple drug resistant Streptococcus pneumoniae serotype 19A by broth microdilution method
Streptococcus pneumoniae [8] = assay: Antimicrobial activity against multiple drug resistant Streptococcus pneumoniae serotype 19F by broth microdilution method
Streptococcus pneumoniae [9] = assay: Antimicrobial activity against multiple drug resistant Streptococcus pneumoniae serotype 6B by broth microdilution method
Streptococcus pneumoniae [10] = assay: Antimicrobial activity against Streptococcus pneumoniae serotype 19A assessed as percent susceptible isolates by broth microdilution method
Streptococcus pneumoniae [11] = assay: Antimicrobial activity against Streptococcus pneumoniae serotype 3 assessed as percent susceptible isolates by broth microdilution method
Streptococcus pneumoniae [12] = assay: Antimicrobial activity against Streptococcus pneumoniae serotype 35B assessed as percent susceptible isolates by broth microdilution method
Streptococcus pneumoniae [13] = assay: Antimicrobial activity against Streptococcus pneumoniae serotype 7F assessed as percent susceptible isolates by broth microdilution method
Streptococcus pneumoniae [14] = assay: Antimicrobial activity against Streptococcus pneumoniae serotype 11A assessed as percent susceptible isolates by broth microdilution method
Streptococcus pneumoniae [15] = assay: Antimicrobial activity against Streptococcus pneumoniae serotype 6C assessed as percent susceptible isolates by broth microdilution method
Streptococcus pneumoniae [16] = assay: Antimicrobial activity against multiple drug resistant Streptococcus pneumoniae serotype 19A assessed as percent susceptible isolates by broth microdilution method
Streptococcus pneumoniae [17] = assay: Antimicrobial activity against multiple drug resistant Streptococcus pneumoniae serotype 19F assessed as percent susceptible isolates by broth microdilution method
Streptococcus pneumoniae [18] = assay: Antimicrobial activity against multiple drug resistant Streptococcus pneumoniae serotype 6B assessed as percent susceptible isolates by broth microdilution method
Streptococcus pneumoniae [19] = assay: Antimicrobial activity against Streptococcus pneumoniae serotype 15A assessed as percent susceptible isolates by broth microdilution method
Streptococcus pneumoniae [20] = assay: Antimicrobial activity against Streptococcus pneumoniae serotype 22F assessed as percent susceptible isolates by broth microdilution method
Streptococcus pneumoniae [21] = assay: Antimicrobial activity against Streptococcus pneumoniae serotype 23B assessed as percent susceptible isolates by broth microdilution method
Streptococcus pneumoniae [22] = assay: Antimicrobial activity against Streptococcus pneumoniae serotype 19F assessed as percent susceptible isolates by broth microdilution method
Streptococcus pneumoniae [23] = assay: Antimicrobial activity against Streptococcus pneumoniae serotype 23A assessed as percent susceptible isolates by broth microdilution method

CC1(C)S[C@@H]2[C@H](NC(=O)Cc3ccccc3)C(=O)N2[C@H]1C(=O)O [PENICILLIN G]
MIC50 (Streptococcus pneumoniae [1]): 4 µg/mL (≈ 12 µM) | MIC90 (Streptococcus pneumoniae [1]): 4 µg/mL (≈ 12 µM) | MIC (Streptococcus pneumoniae [2]): ≤ 0.03 µg/mL | MIC50 (Streptococcus pneumoniae [2]): ≤ 0.03 µg/mL | MIC90 (Streptococcus pneumoniae [2]): ≤ 0.03 µg/mL | MIC50 (Streptococcus pneumoniae [3]): 2 µg/mL (≈ 5.98 µM) | MIC90 (Streptococcus pneumoniae [3]): 2 µg/mL (≈ 5.98 µM) | MIC (Streptococcus pneumoniae [4]): ≤ 0.03 µg/mL | MIC50 (Streptococcus pneumoniae [4]): ≤ 0.03 µg/mL | MIC90 (Streptococcus pneumoniae [4]): ≤ 0.03 µg/mL | MIC (Streptococcus pneumoniae [5]): ≤ 0.03 µg/mL | MIC50 (Streptococcus pneumoniae [5]): ≤ 0.03 µg/mL | MIC90 (Streptococcus pneumoniae [5]): ≤ 0.03 µg/mL | MIC50 (Streptococcus pneumoniae [6]): 0.5 µg/mL (≈ 1.5 µM) | MIC90 (Streptococcus pneumoniae [6]): 1 µg/mL (≈ 2.99 µM) | MIC50 (Streptococcus pneumoniae [7]): 4 µg/mL (≈ 12 µM) | MIC90 (Streptococcus pneumoniae [7]): 4 µg/mL (≈ 12 µM) | MIC50 (Streptococcus pneumoniae [8]): 4 µg/mL (≈ 12 µM) | MIC90 (Streptococcus pneumoniae [8]): 4 µg/mL (≈ 12 µM) | MIC50 (Streptococcus pneumoniae [9]): 4 µg/mL (≈ 12 µM) | MIC90 (Streptococcus pneumoniae [9]): 4 µg/mL (≈ 12 µM) | Activity (Streptococcus pneumoniae [10]): 46.6% | Activity (Streptococcus pneumoniae [11]): 100% | Activity (Streptococcus pneumoniae [12]): 98.3% | Activity (Streptococcus pneumoniae [13]): 98.3% | Activity (Streptococcus pneumoniae [14]): 100% | Activity (Streptococcus pneumoniae [15]): 100% | Activity (Streptococcus pneumoniae [16]): 11.4% | Activity (Streptococcus pneumoniae [17]): 11.4% | Activity (Streptococcus pneumoniae [18]): 11.4% | Activity (Streptococcus pneumoniae [19]): 100% | Activity (Streptococcus pneumoniae [20]): 100% | Activity (Streptococcus pneumoniae [21]): 100% | Activity (Streptococcus pneumoniae [22]): 37.9% | Activity (Streptococcus pneumoniae [23]): 100%

CC1(C)S[C@@H]2[C@H](NC(=O)COc3ccccc3)C(=O)N2[C@H]1C(=O)O [PENICILLIN V]
MIC50 (Streptococcus pneumoniae [1]): 4 µg/mL (≈ 11.4 µM) | MIC90 (Streptococcus pneumoniae [1]): 4 µg/mL (≈ 11.4 µM) | MIC (Streptococcus pneumoniae [2]): ≤ 0.03 µg/mL | MIC50 (Streptococcus pneumoniae [2]): ≤ 0.03 µg/mL | MIC90 (Streptococcus pneumoniae [2]): ≤ 0.03 µg/mL | MIC50 (Streptococcus pneumoniae [3]): 2 µg/mL (≈ 5.71 µM) | MIC90 (Streptococcus pneumoniae [3]): 2 µg/mL (≈ 5.71 µM) | MIC (Streptococcus pneumoniae [4]): ≤ 0.03 µg/mL | MIC50 (Streptococcus pneumoniae [4]): ≤ 0.03 µg/mL | MIC90 (Streptococcus pneumoniae [4]): ≤ 0.03 µg/mL | MIC (Streptococcus pneumoniae [5]): ≤ 0.03 µg/mL | MIC50 (Streptococcus pneumoniae [5]): ≤ 0.03 µg/mL | MIC90 (Streptococcus pneumoniae [5]): ≤ 0.03 µg/mL | MIC50 (Streptococcus pneumoniae [6]): 0.5 µg/mL (≈ 1.43 µM) | MIC90 (Streptococcus pneumoniae [6]): 1 µg/mL (≈ 2.85 µM) | MIC50 (Streptococcus pneumoniae [7]): 4 µg/mL (≈ 11.4 µM) | MIC90 (Streptococcus pneumoniae [7]): 4 µg/mL (≈ 11.4 µM) | MIC50 (Streptococcus pneumoniae [8]): 4 µg/mL (≈ 11.4 µM) | MIC90 (Streptococcus pneumoniae [8]): 4 µg/mL (≈ 11.4 µM) | MIC50 (Streptococcus pneumoniae [9]): 4 µg/mL (≈ 11.4 µM) | MIC90 (Streptococcus pneumoniae [9]): 4 µg/mL (≈ 11.4 µM) | Activity (Streptococcus pneumoniae [10]): 13.8% | Activity (Streptococcus pneumoniae [11]): 98.8% | Activity (Streptococcus pneumoniae [12]): 10.2% | Activity (Streptococcus pneumoniae [13]): 10.2% | Activity (Streptococcus pneumoniae [14]): 95.9% | Activity (Streptococcus pneumoniae [15]): 37.2% | Activity (Streptococcus pneumoniae [16]): 0% | Activity (Streptococcus pneumoniae [17]): 0% | Activity (Streptococcus pneumoniae [18]): 0% | Activity (Streptococcus pneumoniae [19]): 10.5% | Activity (Streptococcus pneumoniae [20]): 100% | Activity (Streptococcus pneumoniae [21]): 84.8% | Activity (Streptococcus pneumoniae [22]): 20.7% | Activity (Streptococcus pneumoniae [23]): 36.4%

CN[C@H](CC(C)C)C(=O)N[C@H]1C(=O)N[C@@H](CC(N)=O)C(=O)N[C@H]2C(=O)N[C@H]3C(=O)N[C@H](C(=O)N[C@H](C(=O)O)c4cc(O)cc(O)c4-c4cc3ccc4O)[C@H](O)c3ccc(c(Cl)c3)Oc3cc2cc(c3O[C@@H]2O[C@H](CO)[C@@H](O)[C@H](O)[C@H]2O[C@H]2C[C@](C)(N)[C@H](O)[C@H](C)O2)Oc2ccc(cc2Cl)[C@H]1O [VANCOMYCIN]
MIC (Streptococcus pneumoniae [1]): ≤ 1 µg/mL | MIC50 (Streptococcus pneumoniae [1]): ≤ 1 µg/mL | MIC90 (Streptococcus pneumoniae [1]): ≤ 1 µg/mL | MIC (Streptococcus pneumoniae [2]): ≤ 1 µg/mL | MIC50 (Streptococcus pneumoniae [2]): ≤ 1 µg/mL | MIC90 (Streptococcus pneumoniae [2]): ≤ 1 µg/mL | MIC (Streptococcus pneumoniae [3]): ≤ 1 µg/mL | MIC50 (Streptococcus pneumoniae [3]): ≤ 1 µg/mL | MIC90 (Streptococcus pneumoniae [3]): ≤ 1 µg/mL | MIC (Streptococcus pneumoniae [4]): ≤ 1 µg/mL | MIC50 (Streptococcus pneumoniae [4]): ≤ 1 µg/mL | MIC90 (Streptococcus pneumoniae [4]): ≤ 1 µg/mL | MIC (Streptococcus pneumoniae [5]): ≤ 1 µg/mL | MIC50 (Streptococcus pneumoniae [5]): ≤ 1 µg/mL | MIC90 (Streptococcus pneumoniae [5]): ≤ 1 µg/mL | MIC (Streptococcus pneumoniae [6]): ≤ 1 µg/mL | MIC50 (Streptococcus pneumoniae [6]): ≤ 1 µg/mL | MIC90 (Streptococcus pneumoniae [6]): ≤ 1 µg/mL | MIC (Streptococcus pneumoniae [7]): ≤ 1 µg/mL | MIC50 (Streptococcus pneumoniae [7]): ≤ 1 µg/mL | MIC90 (Streptococcus pneumoniae [7]): ≤ 1 µg/mL | MIC (Streptococcus pneumoniae [8]): ≤ 1 µg/mL | MIC50 (Streptococcus pneumoniae [8]): ≤ 1 µg/mL | MIC90 (Streptococcus pneumoniae [8]): ≤ 1 µg/mL | MIC (Streptococcus pneumoniae [9]): ≤ 1 µg/mL | MIC50 (Streptococcus pneumoniae [9]): ≤ 1 µg/mL | MIC90 (Streptococcus pneumoniae [9]): ≤ 1 µg/mL | Activity (Streptococcus pneumoniae [10]): 100% | Activity (Streptococcus pneumoniae [11]): 100% | Activity (Streptococcus pneumoniae [12]): 100% | Activity (Streptococcus pneumoniae [13]): 100% | Activity (Streptococcus pneumoniae [14]): 100% | Activity (Streptococcus pneumoniae [15]): 100% | Activity (Streptococcus pneumoniae [16]): 100% | Activity (Streptococcus pneumoniae [17]): 100% | Activity (Streptococcus pneumoniae [18]): 100% | Activity (Streptococcus pneumoniae [19]): 100% | Activity (Streptococcus pneumoniae [20]): 100% | Activity (Streptococcus pneumoniae [21]): 100% | Activity (Streptococcus pneumoniae [22]): 100% | Activity (Streptococcus pneumoniae [23]): 100%
